Results published in patent US9290427B2, “Anti-invasive compounds” (Universiteit Gent, priority 2012, dated 2016).

Experiments:
MCF-7/6 cells = assay: MTT test, MCF-7/6; assay type: cell-based, human; conditions: for decrease in mitochondrial activity: FIG. 5
Experimental: (§1) An MTT test provides an indication of cell viability, proliferation and activity through determination of the mitochondrial conversion of 3-(4,5-dimethylthiazol-2-yl)-2,5-diphenyltetrazolium bromide (MTT), a yellow salt, into formazan, a salt that precipitates under the form of blue crystals.
(§2) In concreto, 5,000 cells are seeded in a cup of a 96 well-plate, treated with the desired amount of the test substance, and incubated for a chosen period of time. Next, 40 μL of a filtered (0.2 μm) 5 mg·mL^−1 solution of MTT in PBS is added to the cup. After 2 h of incubation at 37° C. in the dark, all liquid is removed. The obtained formazan salts are dissolved in 200 μL of DMSO, whereupon optical density is measured at 490 nm.
The effects of some chalcone-like compounds on the proliferation of MCF-7/6 cells were investigated. A commonly used method to quantify the metabolic activity of cells and thus to a certain degree cell viability—is the MTT assay. This test provides a measure of mitochondrial activity, as it assesses the reduction of 3-(4,5-dimethylthiazol-2-yl)-2,5-diphenyltetrazolium bromide (MTT), a yellow tetrazole, to the purple formazan; this transformation occurs in the mitochondria of living cells (Mosmann T., 1983).
Thus, the influence of 13 compounds on the mitochondrial activity of MCF-7/6 cells was determined at 3 different concentrations, both after 24 and 48 h of incubation. Assessment of the mitochondrial activity after 192 h of incubation, which would correspond to the duration of the CHI assay, was not possible as the degree of confluence of the cells was too high at that time point.
The antiproliferative effects of 4-fluoro-3′,4′,5′-trimethoxychalcone on MCF-7/6 cells were further assessed in the MTT assay upon prolonged incubation, as this would provide a higher degree of relevance to the CHI assay, which has an 8-day incubation period. As mentioned above, cell confluence was too high after 192 h; therefore, an incubation time of 144 h was considered a good compromise.

MCF-7/LucF5 cells = assay: SRB test, MCF-7/LucF5; assay type: cell-based, human
Experimental: (§3) The SRB assay is used to evaluate growth effects on cells, and measures the total protein content. In this test, 5,000 cells are seeded in a cup of a 96-well plate. Upon a 24 h-attachment period, cells are treated with a certain amount of the test molecule (dissolved in DMSO). After a pre-chosen incubation time, cells are fixed with 50 μL of 50% trichloroacetic acid (2° C., 1 h). Afterward, the plate is rinsed five times with tap water, and air dried overnight.
(§4) Next, proteins are stained with 75 μL of a 0.4% solution of SRB in AcOH (30 min). Unbound SRB is subsequently removed by washing with a 1% solution of glacial AcOH, whereupon the plate is air dried. Then, bound SRB is redissolved in 100 μL of a 10 mmol·L^−1 tris(hydroxymethyl)aminomethane (Tris) buffer (pH=10.5), after which optical density is determined at 490 nm with a spectrophotometer.
In order to further validate the use of the MCF-7/LucF5 cells in our in vivo experiments, the effects of 4-fluoro-3′,4′,5′-trimethoxychalcone on this cell line in the MTT and SRB assays were determined as well (Van Hoorde L. et al., 1999).

[1] = system: HCT8-E11 colon carcinoma cells; assay: MTT test, HCT8-E11; assay type: cell-based, human
Experimental: as §1, §2
(§5) In order to verify whether the antiproliferative effects of compound 49, witnessed in BLM and MCF-7/6 cells at high concentrations, were cell specific, additional SRB and MTT assays on a further five cell lines (HCT8-E11, TR146, FaDu, 3T3-L1 and CT5.3) were conducted (FIG. 8). The results for MCF-7/6 cells were added to facilitate comparison.
(§6) The CT5.3 cell line consists of human myofibroblasts which were isolated from a colon tumor (Van Hoorde et al., 1999). 3T3-L1 cells are murine fibroblasts, originating from embryo's of Swiss mice (Todaro and Green, 1963). HCT8-E11, FaDu and TR146 are human epithelial cancer cell lines. […]

[2] = system: HCT8-E11 colon carcinoma cells; assay: SRB test, HCT8-E11; assay type: cell-based, human
Experimental: as §3, §4, §5
(§7) The CT5.3 cell line consists of human myofibroblasts which were isolated from a colon tumor (Van Hoorde et al., 1999). […]

TR146 cells = assay: MTT test, TR146; assay type: cell-based, human
Experimental: as §1, §2, §5, §6

FaDu cells = assay: SRB test, FaDu; assay type: cell-based, human; conditions: 1 or 10 μmol·L−1, 24 h
Experimental: as §3, §4, §5, §7

3T3-L1 cells = assay: MTT test, 3T3-L1; assay type: cell-based, murine; conditions: 10 μmol·L−1, 24 h
Experimental: as §1, §2, §5, §6

[3] = elevated concentrations 10-100 μmol·L−1, summary

## COc1cc(C(=O)/C=C/c2ccc(F)cc2)cc(OC)c1OC [Compound 49, (2E)-3-(4-Fluorophenyl)-1-(3,4,5-trimethoxyphenyl)propenone]
MCF-7/6 cells; 0.1 μmol·L−1, FIG. 6
  mitochondrial activity relative to solvent control: increased significantly
MCF-7/6 cells; 1 μmol·L−1, 24 h
  mitochondrial activity: the same trend, but without significance
MCF-7/6 cells; 5 μmol·L−1, 24 h
  decrease in mitochondrial activity: 35%
MCF-7/6 cells; 5 μmol·L−1, 48 h
  decrease in mitochondrial activity: 25%
MCF-7/6 cells; 10 μmol·L−1, 24 h
  reduction in mitochondrial activity: 40%
MCF-7/6 cells; 100 and 10 μmol·L−1, FIG. 6 (72 and 144 h), p<0.01
  mitochondrial activity relative to solvent control: significant reduction
MCF-7/6 cells; [3]
  reduction in mitochondrial activity: ~50%
MCF-7/LucF5 cells; 1 and 0.1 μmol·L−1, 72 h (p=0.0703 and 0.0538)
  cell count: marginally significant reduction
MCF-7/LucF5 cells; 100 or 10 μmol·L−1, 72 h (p=0)
  total protein content: significant reduction
MCF-7/LucF5 cells; [3]
  reduction in total protein content: ~50%
[1]; 10 μmol·L−1, 24 h
  reduction in mitochondrial activity: 40%
[1]; [3]
  reduction in mitochondrial activity: ~50%
[2]; 10 μmol·L−1, 24 h, decreasing trend, not significant
  change in total protein content: −27%
[2]; [3]
  reduction in total protein content: ~50%
TR146 cells; 1 μmol·L−1, 24 h
  increase in mitochondrial activity: 7%
TR146 cells; 10 μmol·L−1, 24 h
  reduction in mitochondrial activity: 30%
FaDu cells
  total protein content versus solvent control: no significant differences
3T3-L1 cells
  reduction in mitochondrial activity: 30%
